Patent US20100093776A1, “Organic Compounds and Their Uses” (Novartis AG, priority 2006, published 2010)

Experiments:
neointima formation = settings: rats; cited from earlier work
[1] = tested on: RNA polymerase II CTD serine2 phosphorylation in Hep3B cells; experiment: H5 (Ser2) Ab High Content Screen: RNA polymerase II CTD serine2 phosphorylation Assay; assay type: cell-based; settings: Homo sapiens, compounds for 2 hours, H5 antibody nuclear staining
Experimental: H5 (also referred as Ser2) Ab High Content Screen: RNA polymerase II CTD serine2 phosphorylation Assay
1. Cells are plated into 384 well plates: 30 μl of Hep3B cells (4,000 cells/30 μl) in DMEM with 3% FBS are plated into wells of a tissue culture treated clear bottomed 384 well plate. Cells are allowed to adhere during an overnight incubation.
2. Cells are treated with compounds for two hours: 10 μl of DMEM with 3% FBS is added to each well with a final concentration of DMSO equal to 1%. Cells are incubated with compounds for 2 hours.
3. Cells are fixed and permeabilized. Cells are washed with 30 mM HEPES pH=7.3 then fixed in 4% paraformaldehyde in 30 mM HEPES pH=7.3 for one hour at room temperature. The fix is removed by washing the cells with Tris buffered saline (TBS) and the cells are permeabilized by incubation in TBS with 0.5% triton X-100 for 30 minutes at room temperature. Triton is removed by washing the cells with TBS.
4. Cells are stained with H5 monoclonal antibody and nuclei are stained with Hoechst dye 33342: Block cells by incubating in TBS with 1% Bovine serum albumin (BSA) for one hour at room temperature. Incubate primary H5 Ab (1/250) overnight at 4 degrees in PBS with 1% BSA and 0.1% Tween-20. The next day wash cells with TBS. Add secondary antibody, anti-IgM labeled with cy5 (1/450), and Hoecsht dye 33342 (10 μg/ml) in TBS with 1% BSA and incubate one hour at room temperature. Wash cells with PBS.
5. Measure staining using the In-cell Analyzer system from GE Healthcare. Nuclei were located using the Hoecsht 33342 dye signal and H5 Antibody staining was quantified by measuring cy5 label. Nuclear intensity of H5 staining was plotted against the log of compound concentration for each compound and IC-50 values were calculated using the spotfire IC-50 calculator and confirmed by visual analysis.

CDK7/cyclinH/MAT1 = target: T1, CDK7/cyclinH/MAT1 (Homo sapiens, UniProt P50613); experiment: CDK7/cyclinH/Mat1 IMAP fluorescence polarization kinase assay; assay type: biochemical; settings: 8.09 μM ATP, two hours at room temperature
T1 construct: purchased Millipore
T1 sequence (P50613 whole entry): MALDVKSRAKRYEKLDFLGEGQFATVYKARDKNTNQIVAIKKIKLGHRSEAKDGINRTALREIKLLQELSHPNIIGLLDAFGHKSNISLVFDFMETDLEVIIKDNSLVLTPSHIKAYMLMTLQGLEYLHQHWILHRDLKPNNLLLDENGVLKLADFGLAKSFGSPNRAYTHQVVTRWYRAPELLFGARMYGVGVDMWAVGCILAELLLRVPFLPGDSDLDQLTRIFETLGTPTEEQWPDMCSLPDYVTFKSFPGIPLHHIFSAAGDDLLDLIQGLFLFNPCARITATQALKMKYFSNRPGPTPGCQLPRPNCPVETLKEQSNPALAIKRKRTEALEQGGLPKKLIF
T1 sequence (P51946 whole entry partner): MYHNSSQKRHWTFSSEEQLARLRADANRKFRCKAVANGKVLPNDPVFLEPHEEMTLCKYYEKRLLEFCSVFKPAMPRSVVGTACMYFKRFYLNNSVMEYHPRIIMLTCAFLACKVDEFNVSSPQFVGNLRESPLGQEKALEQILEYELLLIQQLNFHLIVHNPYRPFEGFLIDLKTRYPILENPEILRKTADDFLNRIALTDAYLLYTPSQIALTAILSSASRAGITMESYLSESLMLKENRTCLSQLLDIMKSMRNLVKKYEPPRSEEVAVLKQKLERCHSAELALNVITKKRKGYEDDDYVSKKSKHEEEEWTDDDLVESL
T1 sequence (P51948 whole entry partner): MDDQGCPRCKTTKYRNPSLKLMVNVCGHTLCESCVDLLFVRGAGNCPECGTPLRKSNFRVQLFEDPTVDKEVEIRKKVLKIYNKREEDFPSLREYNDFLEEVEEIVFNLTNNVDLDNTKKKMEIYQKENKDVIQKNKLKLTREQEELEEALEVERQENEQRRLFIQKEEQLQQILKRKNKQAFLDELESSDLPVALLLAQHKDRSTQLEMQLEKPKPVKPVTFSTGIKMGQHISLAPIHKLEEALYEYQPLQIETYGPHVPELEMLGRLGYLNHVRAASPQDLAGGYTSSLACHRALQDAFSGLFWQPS
Experimental: (§1) Kinase assays were performed on recombinant purified enzymes using the non-radioactive IMAP fluorescence polarization assay format.
(§2) Compound stocks were prepared and diluted in DMSO and were added to kinase reactions at a 1/100 dilution for a final concentration of 1% DMSO. The components were added together to final concentrations listed in the tables below and incubated for two hours at room temperature.
(§3) The reactions were stopped by addition of stop solution.
(§4) CDK9/CDK1/CDK7: final stop concentration is 1× Developer buffer (85% A/15% B), IMAP beads 1/400
(§5) The samples were allowed to incubate for one more hour at room temperature and then the fluorescence polarization was measured. The plate normalized millipolarization (mP) values were plotted against the log of compound concentration for each compound and IC50 values were calculated using the spotfire IC50 calculator and confirmed by visual analysis.

CDK5 = CDK5 (Homo sapiens, UniProt Q00535); experiment: CDK5 kinase assay (IMAP fluorescence polarization); assay type: biochemical
Sequence of CDK5 (Q00535 whole entry, species assumed): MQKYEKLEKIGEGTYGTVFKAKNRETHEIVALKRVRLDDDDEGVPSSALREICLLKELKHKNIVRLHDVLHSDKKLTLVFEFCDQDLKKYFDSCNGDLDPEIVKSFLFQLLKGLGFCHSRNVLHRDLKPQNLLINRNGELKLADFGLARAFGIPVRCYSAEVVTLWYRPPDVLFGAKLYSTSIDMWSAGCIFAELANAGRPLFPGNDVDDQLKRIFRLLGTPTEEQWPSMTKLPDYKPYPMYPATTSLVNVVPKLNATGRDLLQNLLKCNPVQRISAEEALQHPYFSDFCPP
Sequence of CDK5 (Q15078 whole entry partner, species assumed): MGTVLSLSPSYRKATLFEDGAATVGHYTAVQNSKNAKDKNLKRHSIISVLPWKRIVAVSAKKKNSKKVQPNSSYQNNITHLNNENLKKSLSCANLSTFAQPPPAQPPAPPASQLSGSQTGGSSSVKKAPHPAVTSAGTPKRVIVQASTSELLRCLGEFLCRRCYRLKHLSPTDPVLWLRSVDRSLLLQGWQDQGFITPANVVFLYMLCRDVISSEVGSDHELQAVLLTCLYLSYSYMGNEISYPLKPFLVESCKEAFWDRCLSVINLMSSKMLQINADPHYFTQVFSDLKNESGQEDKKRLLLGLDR
Experimental: as §1, §2, §5

CDK1/cyclinB = target: T2, CDK1/cyclinB (Homo sapiens, UniProt P06493); experiment: CDK1/cyclinB IMAP fluorescence polarization kinase assay; assay type: biochemical; settings: 52 μM ATP, two hours at room temperature
T2 construct: purchased Millipore
T2 sequence (P06493 whole entry): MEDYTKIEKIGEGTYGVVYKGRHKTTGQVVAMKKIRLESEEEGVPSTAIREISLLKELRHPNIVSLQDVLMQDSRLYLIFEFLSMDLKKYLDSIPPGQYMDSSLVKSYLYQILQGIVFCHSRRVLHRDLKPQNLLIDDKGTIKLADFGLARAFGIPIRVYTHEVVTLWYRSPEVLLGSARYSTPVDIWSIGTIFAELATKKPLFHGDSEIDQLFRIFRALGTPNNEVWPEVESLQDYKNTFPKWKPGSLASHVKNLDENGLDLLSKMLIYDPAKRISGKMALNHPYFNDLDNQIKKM
T2 sequence (P14635 whole entry partner): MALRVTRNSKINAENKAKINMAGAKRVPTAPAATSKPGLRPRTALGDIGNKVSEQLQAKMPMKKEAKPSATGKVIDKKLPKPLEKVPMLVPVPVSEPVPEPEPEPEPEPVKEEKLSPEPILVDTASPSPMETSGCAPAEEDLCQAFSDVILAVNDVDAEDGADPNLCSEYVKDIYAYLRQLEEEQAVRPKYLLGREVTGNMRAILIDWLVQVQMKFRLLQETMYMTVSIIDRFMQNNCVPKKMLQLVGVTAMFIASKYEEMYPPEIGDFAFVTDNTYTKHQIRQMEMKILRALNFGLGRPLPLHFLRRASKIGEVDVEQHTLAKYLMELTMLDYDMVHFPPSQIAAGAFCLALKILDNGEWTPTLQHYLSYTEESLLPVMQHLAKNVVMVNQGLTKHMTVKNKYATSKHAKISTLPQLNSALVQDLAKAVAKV
Experimental: as §1, §2, §3, §4, §5

CDK9/cyclinT1 = target: T3, CDK9/cyclinT1 (Homo sapiens, UniProt P50750); experiment: CDK9/cyclinT1 IMAP fluorescence polarization kinase assay; assay type: biochemical; settings: 6 μM ATP, two hours at room temperature
T3 construct: purchased Millipore
T3 sequence (P50750 whole entry): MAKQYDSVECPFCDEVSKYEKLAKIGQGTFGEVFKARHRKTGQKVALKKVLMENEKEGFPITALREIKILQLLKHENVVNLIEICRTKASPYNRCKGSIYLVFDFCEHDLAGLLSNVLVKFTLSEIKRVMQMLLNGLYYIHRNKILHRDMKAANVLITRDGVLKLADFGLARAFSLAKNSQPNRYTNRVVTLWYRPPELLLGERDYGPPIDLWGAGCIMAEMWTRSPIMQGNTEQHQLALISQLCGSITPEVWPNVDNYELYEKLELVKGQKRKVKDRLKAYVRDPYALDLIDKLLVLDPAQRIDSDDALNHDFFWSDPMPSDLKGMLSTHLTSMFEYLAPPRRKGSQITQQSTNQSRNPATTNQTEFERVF
T3 sequence (O60563 whole entry partner): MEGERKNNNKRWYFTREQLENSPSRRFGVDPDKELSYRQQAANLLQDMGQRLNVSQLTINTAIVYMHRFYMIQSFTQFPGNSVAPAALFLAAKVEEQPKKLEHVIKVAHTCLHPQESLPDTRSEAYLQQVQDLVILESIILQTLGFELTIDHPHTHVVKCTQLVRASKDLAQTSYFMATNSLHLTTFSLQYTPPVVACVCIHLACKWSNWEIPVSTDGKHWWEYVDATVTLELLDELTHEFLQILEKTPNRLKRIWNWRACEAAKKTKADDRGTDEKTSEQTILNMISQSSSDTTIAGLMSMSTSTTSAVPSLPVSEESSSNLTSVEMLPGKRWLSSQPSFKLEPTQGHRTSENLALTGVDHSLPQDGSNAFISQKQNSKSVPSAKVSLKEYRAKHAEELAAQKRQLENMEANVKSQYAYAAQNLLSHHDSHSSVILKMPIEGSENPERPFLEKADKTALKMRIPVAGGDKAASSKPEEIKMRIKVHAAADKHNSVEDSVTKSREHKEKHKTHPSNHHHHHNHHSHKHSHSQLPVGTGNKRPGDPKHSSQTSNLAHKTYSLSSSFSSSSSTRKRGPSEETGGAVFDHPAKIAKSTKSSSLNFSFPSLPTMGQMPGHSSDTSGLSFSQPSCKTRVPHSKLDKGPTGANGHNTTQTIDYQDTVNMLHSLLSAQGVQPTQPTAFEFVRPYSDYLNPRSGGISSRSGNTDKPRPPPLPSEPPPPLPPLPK
Experimental: as §1, §2, §3, §4, §5

CDK4 = CDK4 (Homo sapiens, UniProt P11802); experiment: CDK4 kinase assay (IMAP fluorescence polarization); assay type: biochemical
Sequence of CDK4 (P11802 whole entry, species assumed): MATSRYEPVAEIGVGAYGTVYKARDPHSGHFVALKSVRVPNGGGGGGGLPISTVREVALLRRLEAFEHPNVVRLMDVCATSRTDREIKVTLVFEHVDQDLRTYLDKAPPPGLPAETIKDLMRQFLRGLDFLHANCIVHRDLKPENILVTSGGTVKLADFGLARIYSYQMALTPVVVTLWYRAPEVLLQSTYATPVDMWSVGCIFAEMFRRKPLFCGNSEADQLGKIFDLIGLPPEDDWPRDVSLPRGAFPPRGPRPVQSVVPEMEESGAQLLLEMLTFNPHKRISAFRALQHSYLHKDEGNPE
Sequence of CDK4 (P24385 whole entry partner, species assumed): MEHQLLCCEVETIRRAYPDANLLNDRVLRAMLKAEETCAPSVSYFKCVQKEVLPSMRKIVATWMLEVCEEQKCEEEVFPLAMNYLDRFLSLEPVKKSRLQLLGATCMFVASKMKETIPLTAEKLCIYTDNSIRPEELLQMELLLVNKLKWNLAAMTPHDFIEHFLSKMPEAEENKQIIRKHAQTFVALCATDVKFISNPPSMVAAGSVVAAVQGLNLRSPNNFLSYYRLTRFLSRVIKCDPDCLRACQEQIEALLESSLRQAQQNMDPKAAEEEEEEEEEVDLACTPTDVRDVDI
Experimental: as §1, §2, §5

CDK2/cyclinA = target: T4, CDK2/cyclinA (Homo sapiens, UniProt P24941); experiment: CDK2/cyclinA IMAP fluorescence polarization kinase assay; assay type: biochemical; settings: 4.68 μM ATP, two hours at room temperature
T4 construct: purchased Millipore
Experimental: as §1, §2, §3
CDK2: final stop concentration is 1× Developer buffer (100% A), IMAP beads 1/400
as §5

Row | IC50 [1] [µM] | IC50 (CDK7/cyclinH/MAT1) [µM] | IC50 (CDK5) [µM] | IC50 (CDK1/cyclinB) [µM] | IC50 (CDK9/cyclinT1) [µM] | IC50 (CDK4) [µM] | IC50 (CDK2/cyclinA) [µM] | SMILES | inhibition of neointima formation (neointima formation)
1 | – | – | – | – | – | – | – | COc1ccc(CNc2nc(N(CCO)CCO)nc3c2ncn3C(C)C)cc1 [CVT-313] | greater than 80%
2 | < 5 | > 50 | < 5 | < 5 | < 5 | 5 to 15 | – | Clc1cccc(Nc2nccc(-c3cccc4[nH]ccc34)n2)c1 [Compound 1, (3-Chloro-phenyl)-[4-(1H-indol-4-yl)-pyrimidin-2-yl]-amine] | –
3 | < 5 | < 5 | < 5 | < 5 | < 5 | < 5 | < 5 | CS(=O)(=O)c1cccc(Nc2nccc(-c3cccc4[nH]ccc34)n2)c1 [Compound 2, [4-(1H-Indol-4-yl)-pyrimidin-2-yl]-(3-methanesulfonyl-phenyl)-amine] | –
4 | < 5 | > 50 | – | > 50 | < 5 | – | – | CCNC(=O)Cn1ccc2c(-c3ccnc(Nc4cccc(Cl)c4)n3)cccc21 [Compound 13, 2-{4-[2-(3-Chloro-phenylamino)-pyrimidin-4-yl]-indol-1-yl}-N-ethyl-acetamide] | –
5 | < 5 | < 5 | < 5 | < 5 | < 5 | 5 to 15 | < 5 | Cc1cnc(Nc2cccc(S(C)(=O)=O)c2)nc1-c1cccc2[nH]ccc12 [Compound 31, [4-(1H-Indol-4-yl)-5-methyl-pyrimidin-2-yl]-(3-methanesulfonyl-phenyl)-amine] | –
